{"source": "BindingDB's records for doi:10.1016/j.ejmech.2021.113474", "about": "(Yanbian University, 2021)"}
{"biological_target": "Hypoxia-inducible factor 1-alpha (Homo sapiens, UniProt Q16665)", "sequence (Q16665 whole entry)": "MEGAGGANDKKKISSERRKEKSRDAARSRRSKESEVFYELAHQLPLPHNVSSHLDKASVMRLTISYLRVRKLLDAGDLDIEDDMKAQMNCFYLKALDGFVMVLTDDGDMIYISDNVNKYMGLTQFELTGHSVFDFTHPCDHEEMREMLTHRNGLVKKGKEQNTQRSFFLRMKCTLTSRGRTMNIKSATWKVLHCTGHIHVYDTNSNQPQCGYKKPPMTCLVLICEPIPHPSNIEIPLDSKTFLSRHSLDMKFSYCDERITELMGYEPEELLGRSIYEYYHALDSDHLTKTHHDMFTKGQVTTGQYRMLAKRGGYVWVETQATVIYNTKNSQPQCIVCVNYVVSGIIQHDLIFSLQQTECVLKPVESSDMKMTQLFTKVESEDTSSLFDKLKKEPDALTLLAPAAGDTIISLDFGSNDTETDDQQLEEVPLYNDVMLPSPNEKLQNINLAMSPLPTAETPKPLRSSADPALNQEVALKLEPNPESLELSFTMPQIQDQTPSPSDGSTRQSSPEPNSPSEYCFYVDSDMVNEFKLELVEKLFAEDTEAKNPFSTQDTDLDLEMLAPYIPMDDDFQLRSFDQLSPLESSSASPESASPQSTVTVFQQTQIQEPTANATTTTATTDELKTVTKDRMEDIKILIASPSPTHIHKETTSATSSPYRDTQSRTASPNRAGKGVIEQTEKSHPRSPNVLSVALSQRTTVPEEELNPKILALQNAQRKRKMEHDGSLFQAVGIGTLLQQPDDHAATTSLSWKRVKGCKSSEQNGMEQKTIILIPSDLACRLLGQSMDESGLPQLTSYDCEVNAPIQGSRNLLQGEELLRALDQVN", "experiment": "Inhibition of hypoxia-induced HIF1alpha transcriptional activity in human Hep3B cells co-transfected with luciferase reporter plasmid containing six copies of HREs and pRL-CMV vector assessed as reduction in luciferase activity incubated for 24 hrs under hypoxic condition by HRE-dependent dual luciferase reporter gene assay", "units": {"IC50": "nM"}}
{"smiles": "CC1=C(O)C(=O)C=C2C1=CC=C1[C@@]2(C)CC[C@@]2(C)[C@@H]3C[C@](C)(C(=O)OCC(=O)Nc4ccc(F)cn4)CC[C@]3(C)CC[C@]12C", "IC50": 250}
{"smiles": "CC1=C(O)C(=O)C=C2C1=CC=C1[C@@]2(C)CC[C@@]2(C)[C@@H]3C[C@](C)(C(=O)OCC(=O)Nc4ccncc4)CC[C@]3(C)CC[C@]12C", "IC50": 32000}
{"smiles": "CC1=C(O)C(=O)C=C2C1=CC=C1[C@@]2(C)CC[C@@]2(C)[C@@H]3C[C@](C)(C(=O)OCCOc4cc(=O)oc5ccccc45)CC[C@]3(C)CC[C@]12C", "IC50": 150}
{"smiles": "CCOP(=O)(OCC)C(NC(=O)COC(=O)[C@]1(C)CC[C@]2(C)CC[C@]3(C)C4=CC=C5C(=CC(=O)C(O)=C5C)[C@]4(C)CC[C@@]3(C)[C@@H]2C1)c1ccccc1", "note": "(stereo not given in full)", "IC50": 240}
{"smiles": "CC1=C(O)C(=O)C=C2C1=CC=C1[C@@]2(C)CC[C@@]2(C)[C@@H]3C[C@](C)(C(=O)OCC(=O)Nc4ccc5ncccc5c4)CC[C@]3(C)CC[C@]12C", "IC50": 240}
{"smiles": "CC1=C(O)C(=O)C=C2C1=CC=C1[C@@]2(C)CC[C@@]2(C)[C@@H]3C[C@](C)(C(=O)OCC(=O)Nc4cnc5ccccc5c4)CC[C@]3(C)CC[C@]12C", "IC50": 90}
{"smiles": "CC1=C(O)C(=O)C=C2C1=CC=C1[C@@]2(C)CC[C@@]2(C)[C@@H]3C[C@](C)(C(=O)OCC(=O)Nc4cccc5ncccc45)CC[C@]3(C)CC[C@]12C", "IC50": 360}
{"smiles": "CC1=C(O)C(=O)C=C2C1=CC=C1[C@@]2(C)CC[C@@]2(C)[C@@H]3C[C@](C)(C(=O)OCCOc4cnc5ccccc5c4)CC[C@]3(C)CC[C@]12C", "IC50": 50}
{"smiles": "CC1=C(O)C(=O)C=C2C1=CC=C1[C@@]2(C)CC[C@@]2(C)[C@@H]3C[C@](C)(C(=O)OCC(=O)NCc4cn(-c5ccc(C)cc5)nn4)CC[C@]3(C)CC[C@]12C", "IC50": "> 30000"}
{"smiles": "C=c1c(O)c(O)cc2c1=CC=C1[C@@]2(C)CC[C@@]2(C)[C@@H]3C[C@](C)(C(=O)O)CC[C@]3(C)CC[C@]12C", "IC50": 250}
{"smiles": "CC1=C(O)C(=O)C=C2C1=CC=C1[C@@]2(C)CC[C@@]2(C)[C@@H]3C[C@](C)(C(=O)OCC(=O)NCc4cn(-c5ccc(Cl)cc5)nn4)CC[C@]3(C)CC[C@]12C", "IC50": "> 30000"}
{"smiles": "CC1=C(O)C(=O)C=C2C1=CC=C1[C@@]2(C)CC[C@@]2(C)[C@@H]3C[C@](C)(C(=O)OCC(=O)Nc4ccc(F)nc4)CC[C@]3(C)CC[C@]12C", "IC50": 160}
{"smiles": "CC1=C(O)C(=O)C=C2C1=CC=C1[C@@]2(C)CC[C@@]2(C)[C@@H]3C[C@](C)(C(=O)OCC(=O)Nc4cccc5cccnc45)CC[C@]3(C)CC[C@]12C", "IC50": 350}
{"smiles": "COc1ccc(-n2cc(CNC(=O)COC(=O)[C@]3(C)CC[C@]4(C)CC[C@]5(C)C6=CC=C7C(=CC(=O)C(O)=C7C)[C@]6(C)CC[C@@]5(C)[C@@H]4C3)nn2)cc1", "IC50": "> 30000"}
{"smiles": "CCOP(=O)(OCC)C(NC(=O)COC(=O)[C@]1(C)CC[C@]2(C)CC[C@]3(C)C4=CC=C5C(=CC(=O)C(O)=C5C)[C@]4(C)CC[C@@]3(C)[C@@H]2C1)c1ccc(F)cc1", "note": "(stereo not given in full)", "IC50": "> 30000"}
{"smiles": "CC1=C(O)C(=O)C=C2C1=CC=C1[C@@]2(C)CC[C@@]2(C)[C@@H]3C[C@](C)(C(=O)OCC(=O)Nc4ccnc5ccccc45)CC[C@]3(C)CC[C@]12C", "IC50": 490}
{"smiles": "CC1=C(O)C(=O)C=C2C1=CC=C1[C@@]2(C)CC[C@@]2(C)[C@@H]3C[C@](C)(C(=O)OCCOc4cc(C)oc(=O)c4)CC[C@]3(C)CC[C@]12C", "IC50": 150}
{"smiles": "CC1=C(O)C(=O)C=C2C1=CC=C1[C@@]2(C)CC[C@@]2(C)[C@@H]3C[C@](C)(C(=O)OCC(=O)NCc4cn(-c5ccc(Cl)c(Cl)c5)nn4)CC[C@]3(C)CC[C@]12C", "IC50": 120}
{"smiles": "CCOP(=O)(OCC)C(NC(=O)COC(=O)[C@]1(C)CC[C@]2(C)CC[C@]3(C)C4=CC=C5C(=CC(=O)C(O)=C5C)[C@]4(C)CC[C@@]3(C)[C@@H]2C1)c1ccc(C)cc1", "note": "(stereo not given in full)", "IC50": "> 30000"}
{"smiles": "CC1=C(O)C(=O)C=C2C1=CC=C1[C@@]2(C)CC[C@@]2(C)[C@@H]3C[C@](C)(C(=O)OCCOc4cccc5ncccc45)CC[C@]3(C)CC[C@]12C", "IC50": "> 30000"}
{"smiles": "CC1=C(O)C(=O)C=C2C1=CC=C1[C@@]2(C)CC[C@@]2(C)[C@@H]3C[C@](C)(C(=O)OCC(=O)Nc4cc(C)on4)CC[C@]3(C)CC[C@]12C", "IC50": 70}
{"smiles": "CC1=C(O)C(=O)C=C2C1=CC=C1[C@@]2(C)CC[C@@]2(C)[C@@H]3C[C@](C)(C(=O)OCCOc4ccc5ccc(=O)oc5c4)CC[C@]3(C)CC[C@]12C", "IC50": 80}
{"smiles": "CCOP(=O)(OCC)C(NC(=O)COC(=O)[C@]1(C)CC[C@]2(C)CC[C@]3(C)C4=CC=C5C(=CC(=O)C(O)=C5C)[C@]4(C)CC[C@@]3(C)[C@@H]2C1)c1ccc(OC)cc1", "note": "(stereo not given in full)", "IC50": 160}
{"smiles": "CC1=C(O)C(=O)C=C2C1=CC=C1[C@@]2(C)CC[C@@]2(C)[C@@H]3C[C@](C)(C(=O)OCCOc4ccc5cccnc5c4)CC[C@]3(C)CC[C@]12C", "IC50": 170}
{"smiles": "CC1=C(O)C(=O)C=C2C1=CC=C1[C@@]2(C)CC[C@@]2(C)[C@@H]3C[C@](C)(C(=O)OCC(=O)NCc4cn(-c5ccccc5)nn4)CC[C@]3(C)CC[C@]12C", "IC50": 600}
